{"source": "patent US20140170210A1", "about": "“METHODS FOR TREATING IMMUNOSUPPRESSION” (TRUSTEES OF DARTMOUTH COLLEGE, priority 2011, published 2014)", "molecules": {"B1": {"name": "#54: microRNA against mouse ACAT1, target sequence SEQ ID NO:3; pre-microRNA SEQ ID NO:5 (nucleic acid)", "chain": "TGCTGTCCAGTATCAGAATGAACCGGGTTTTGGCCACTGACTGACCCGGTTCACTGATACTGGA", "modifications": "expressed or natural sequence"}, "B2": {"name": "#55: microRNA against mouse ACAT1, target sequence SEQ ID NO:4; pre-microRNA SEQ ID NO:6 (nucleic acid)", "chain": "TGCTGTACAGTAGGAGTCCTTGGGTAGTTTTGGCCACTGACTGACTACCCAAGCTCCTACTGTA", "modifications": "expressed or natural sequence"}}, "key": {"ACAT1 [1]": {"biological_target": "T1, ACAT1 (Homo sapiens, UniProt P35610)", "T1 sequence (P35610 1-550)": "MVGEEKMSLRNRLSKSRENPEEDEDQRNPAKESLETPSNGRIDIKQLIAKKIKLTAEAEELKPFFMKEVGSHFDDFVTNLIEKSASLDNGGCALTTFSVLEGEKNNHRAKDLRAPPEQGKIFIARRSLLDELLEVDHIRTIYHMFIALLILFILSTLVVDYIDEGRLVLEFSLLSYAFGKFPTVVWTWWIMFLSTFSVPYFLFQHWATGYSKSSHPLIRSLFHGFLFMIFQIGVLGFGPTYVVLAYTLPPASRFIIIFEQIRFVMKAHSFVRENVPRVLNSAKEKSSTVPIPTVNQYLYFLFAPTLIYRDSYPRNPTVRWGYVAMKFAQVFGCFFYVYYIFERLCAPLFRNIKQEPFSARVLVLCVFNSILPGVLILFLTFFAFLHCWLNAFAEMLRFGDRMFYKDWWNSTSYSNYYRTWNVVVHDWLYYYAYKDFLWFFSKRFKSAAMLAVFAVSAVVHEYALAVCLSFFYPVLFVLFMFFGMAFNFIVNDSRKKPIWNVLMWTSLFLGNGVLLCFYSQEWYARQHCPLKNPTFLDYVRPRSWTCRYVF", "conditions": "cited from earlier work"}, "hACAT-2 [2]": {"biological_target": "T2, hACAT-2 (Homo sapiens, UniProt O75908)", "T2 sequence (O75908 1-522)": "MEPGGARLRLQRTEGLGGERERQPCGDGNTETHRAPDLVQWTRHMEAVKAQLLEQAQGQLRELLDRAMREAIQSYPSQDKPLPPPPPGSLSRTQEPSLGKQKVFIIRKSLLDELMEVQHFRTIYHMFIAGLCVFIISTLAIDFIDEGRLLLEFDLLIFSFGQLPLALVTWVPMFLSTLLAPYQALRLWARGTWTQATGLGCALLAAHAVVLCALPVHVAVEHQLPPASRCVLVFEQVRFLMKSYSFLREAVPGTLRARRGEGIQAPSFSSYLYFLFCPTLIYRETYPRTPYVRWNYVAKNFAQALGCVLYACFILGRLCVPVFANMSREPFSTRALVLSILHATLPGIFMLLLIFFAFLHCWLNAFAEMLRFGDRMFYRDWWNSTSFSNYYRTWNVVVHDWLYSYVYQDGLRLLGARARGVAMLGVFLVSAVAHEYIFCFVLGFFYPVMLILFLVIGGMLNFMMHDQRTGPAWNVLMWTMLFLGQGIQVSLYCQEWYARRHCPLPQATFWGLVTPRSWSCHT", "conditions": "cited from earlier work"}, "[3]": {"conditions": "rats, dogs, and humans; cited from earlier work"}, "human macrophages": {"system": "human macrophages", "conditions": "in vitro; cited from earlier work"}, "coronary atherosclerosis": {"system": "coronary atherosclerosis", "conditions": "in combination with a statin drug, patients; cited from earlier work"}, "[4]": {"system": "amyloid plaque load and cognitive deficits", "conditions": "cited from earlier work"}, "[5]": {"system": "cholesterol ester content in various systemic tissues", "conditions": "4-30 mg/kg/day, small animals; cited from earlier work"}, "[6]": {"conditions": "laboratory animals; cited from earlier work"}, "WT and Acat1-/- BM cells": {"system": "WT and Acat1-/- BM cells", "assay": "Proliferation of cultured BM cells, 3H-thymidine pulse", "format": "cell-based, mouse", "conditions": "for effect on higher 3H-thymidine incorporation phenotype of Acat1-/- BM cells: 10 μM U0126, 1 μM PP2, 72 hours culture with growth factors", "protocol": "WT and Acat1−/− BM cells were cultured in IMDM media containing 10% FBS in the presence of indicated growth factors with or without specific inhibitors as indicated for 72 hours. Concentrations of growth factors used: 100 ng/mL for stem cell factor, 6 ng/mL for IL3; 2 ng/ml for GM-CSF. Concentration of inhibitors used: 10 μM for U0126; 1 μM for PP2. Proliferation was measured after a 3 hour ^3H-thymidine pulse in intact cells. Results are means±SEM of duplicate cultures in 3 separate experiments. **P<0.01, * P<0.05 vs. WT.\nFor cell proliferation measurement in vivo, the manufacturer's protocol (BD Pharmingen; BrdU flow kit) was used. Age- and sex-matched mice of both genotypes were injected intraperitoneally twice, once every 12 hours, with 0.5 mg bromodeoxyuridine (BrdU)/injection/mouse. Twenty-four hours after the first injection, BM progenitor cells (LSKs, CMPs, GMPs, and MEPs) were stained and sorted as described earlier. Proliferation of each of the sorted cell populations was measured by measuring BrdU incorporation, using the BrdU flow kit (BD Pharmingen). Proliferation measurement of BM derived-myeloid cells in culture was carried out using a known method (Yvan-Charvet et al. 2010. supra). Briefly, after lysis of red blood cells from crude BM, cells were cultured in IMDM (Gibco) containing 10% fetal bovine serum (FBS) for 2 hours to remove attached cells. The unattached cells were replated for 72 hours in various conditions as described in FIG. 4. Stem cell factor, IL3, and GM-CSF were from R&D Systems. U0126, PP2, and ApoA1 were from Sigma. Squalene synthase inhibitor (SSI) compound CP-340868 was from Pfizer. Cells were pulsed with 2 μCi/mL ^3H-thymidine for 3 hours and ^3H-thymidine incorporation was monitored by using liquid scintillation counter."}, "ACAT1 and ACAT2": {"system": "ACAT1 and ACAT2", "conditions": "cited from earlier work"}, "[7]": {"system": "atherosclerosis, familial hypercholesterolemia", "conditions": "patients with high risk for atherosclerosis or familial hypercholesterolemia; cited from earlier work"}, "ACAT1 [8]": {"biological_target": "T1, ACAT1", "conditions": "cited from earlier work", "remark": "listed apart in the source"}, "hACAT-2 [9]": {"biological_target": "T2, hACAT-2", "conditions": "cited from earlier work", "remark": "listed apart in the source"}, "ACAT2": {"biological_target": "T3, ACAT2 (Chlorocebus aethiops, UniProt O77759)", "T3 sequence (O77759 1-526)": "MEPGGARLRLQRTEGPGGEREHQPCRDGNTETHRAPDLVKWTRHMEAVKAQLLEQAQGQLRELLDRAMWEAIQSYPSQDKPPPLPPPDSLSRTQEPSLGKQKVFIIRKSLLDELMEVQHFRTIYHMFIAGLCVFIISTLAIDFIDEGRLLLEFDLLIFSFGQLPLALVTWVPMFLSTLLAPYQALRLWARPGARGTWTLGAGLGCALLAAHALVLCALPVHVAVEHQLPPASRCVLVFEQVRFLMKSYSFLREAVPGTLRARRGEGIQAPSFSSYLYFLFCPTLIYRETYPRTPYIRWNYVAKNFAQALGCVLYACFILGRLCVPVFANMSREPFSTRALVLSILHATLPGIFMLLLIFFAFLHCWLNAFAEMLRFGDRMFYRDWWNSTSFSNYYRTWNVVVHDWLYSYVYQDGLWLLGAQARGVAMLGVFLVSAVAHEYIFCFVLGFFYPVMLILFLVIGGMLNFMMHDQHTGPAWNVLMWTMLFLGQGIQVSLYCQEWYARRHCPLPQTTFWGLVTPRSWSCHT", "conditions": "read-out: selective inhibition, ACAT2; cited from earlier work"}, "ACAT1 [10]": {"biological_target": "T1, ACAT1", "conditions": "cited from earlier work", "remark": "listed apart in the source"}, "mouse ACAT1": {"system": "mouse ACAT1", "assay": "ACAT1 knockdown by Acat1 miRs in NIH-3T3 mouse fibroblasts", "format": "cell-based", "conditions": "pre-microRNAs SEQ ID NO:5 and 6", "from_the_text": "Four different siRNA sequences (#52-#55) targeting the mouse Acat1 (also called Soat1) gene were inserted into an endogenous mouse microRNA (miR) scaffold using Invitrogen's RNAi design tool. The artificial miRs were ligated into the mammalian expression vector pcDNA6.2-GW/EmGFP-miR. […] The miRs were delivered to the cells by using standard cDNA transfection protocol. […] These two Acat1 miR sequences and the NC miR sequence were also subcloned into an rAAV backbone vector (AAV-6P-SEWB) that contained the […]. This vector contains a strong and cell-type-nonspecific promoter that expresses Acat1 miRs in any cell type where the viral genome is expressed. For identification purpose, it also coexpresses the GFP with the miRs. These three constructs were used to produce three recombinant AAV viruses. To test the efficacy and specificity of these viruses, cultured primary hippocampal neurons were treated with the NC AAV, or with AAV that expresses miR that contain siRNA Acat1 #55. Two weeks after viral infection, the effects of AAVs on cholesteryl ester biosynthesis in neurons were tested. […] One month after injection, mice were sacrificed and the ACAT1 enzyme activities in the mouse brain homogenates were analyzed by using standard ACAT enzyme activity assay in vitro."}, "[11]": {"conditions": "mouse model for Alzheimer disease"}}, "note": "Read-outs that look alike come from different tables or passages of the source."}
{"molecule": "CC(C)c1cc(C(C)C)c(CC(=O)NS(=O)(=O)Oc2c(C(C)C)cccc2C(C)C)c(C(C)C)c1", "note": "[Avasimibe]", "values": [{"measurement": "IC50", "setting": "ACAT1 [1]", "result": 18.7, "unit": "µM"}, {"measurement": "IC50", "setting": "hACAT-2 [2]", "result": 19.1, "unit": "µM"}, {"measurement": "safety when administered", "setting": "[3]", "result": "safe"}, {"measurement": "foam cell formation in macrophages", "setting": "human macrophages", "result": "reduces foam cell formation"}, {"measurement": "efficacy to further reduce progression of coronary atherosclerosis", "setting": "coronary atherosclerosis", "result": "failed to demonstrate efficacy"}, {"measurement": "activity in a mouse model for Alzheimer's disease", "setting": "[4]; 14.4 mg/kg/day", "result": "beneficial activity"}, {"measurement": "amyloid plaque load", "setting": "[4]; [11]", "result": "significant decreases"}, {"measurement": "cognitive deficits", "setting": "[4]; [11]", "result": "reduction in cognitive deficits"}, {"measurement": "reducing cholesterol ester content in various systemic tissues", "setting": "[5]", "result": "effective"}]}
{"molecule": "CSc1cc(C)nc(SC)c1NC(=O)CN1CCN(CCSc2nc3ccccc3[nH]2)CC1", "note": "[K-604]", "values": [{"measurement": "safety for use in vivo", "setting": "[6]", "result": "safe"}]}
{"molecule": "CC(C)(C)n1nc(-c2ccc(Cl)cc2)c2c(N)ncnc21", "note": "[PP2]", "values": [{"measurement": "effect on higher 3H-thymidine incorporation phenotype of Acat1-/- BM cells", "setting": "WT and Acat1-/- BM cells", "result": "partially alleviated"}]}
{"molecule": "CCCCCCCCN1CCc2c(C)c(CC(=O)O)c(C)c(NC(=O)C(C)(C)C)c21", "note": "[Pactimibe]", "values": [{"measurement": "relative potency on ACAT1 and ACAT2", "setting": "ACAT1 and ACAT2", "result": "approximately equal potency"}, {"measurement": "efficacy as a supplement to statin treatment", "setting": "[7]", "result": "lacked efficacy"}]}
{"molecule": "N#CC(=C(/N)Sc1ccccc1N)/C(C#N)=C(\\N)Sc1ccccc1N", "note": "[U0126]", "values": [{"measurement": "effect on higher 3H-thymidine incorporation phenotype of Acat1-/- BM cells", "setting": "WT and Acat1-/- BM cells", "result": "partially alleviated"}]}
{"molecule": "CCOC(=O)OC(=O)OCC", "note": "[diethyl pyrocarbonate]", "values": [{"measurement": "greater activity on ACAT1 compared to ACAT-2", "setting": "ACAT1 [8]", "result": 4, "unit": "fold"}]}
{"molecule": "COc1ccc([C@@H](O)[C@@H](C)Oc2ccc([C@H]3O[C@H](c4ccc(O[C@H](C)[C@H](O)c5ccc6c(c5)OCO6)c(OC)c4)[C@H](C)[C@H]3C)cc2OC)cc1OC", "note": "[manassantin B]", "values": [{"measurement": "inhibition of hACAT-2", "setting": "hACAT-2 [9]; at 1 mM", "result": 32, "unit": "%"}]}
{"molecule": "ApoA1: a cellular cholesterol efflux mediator", "values": [{"measurement": "effect on enhanced proliferation of Acat1-/- BM cells", "setting": "WT and Acat1-/- BM cells; ApoA1 at 50 or 100 μg/ml", "result": "did not diminish"}]}
{"molecule": "beauveriolide I", "values": [{"measurement": "IC50", "setting": "ACAT2", "result": 20, "unit": "µM"}]}
{"molecule": "saucerneol B", "values": [{"measurement": "IC50", "setting": "ACAT1 [10]", "result": 43, "unit": "µM"}, {"measurement": "IC50", "setting": "hACAT-2 [9]", "result": 124, "unit": "µM"}]}
{"molecule": "B1", "values": [{"measurement": "mouse ACAT1 expression", "setting": "mouse ACAT1", "result": "decrease"}]}
{"molecule": "B2", "values": [{"measurement": "mouse ACAT1 expression", "setting": "mouse ACAT1", "result": "decrease"}]}
